ChEMBL document CHEMBL1157341, “An antimalarial tetrapeptide from the entomopathogenic fungus Hirsutella sp. BCC 1528” (J Nat Prod, 2006)
pIC50: −log10 of the molar value. Calls of active or inactive are those of the source. No cut-off for these calls is given here.

How the values were obtained:
Vero = experiment: Cytotoxicity against african green monkey Vero cells by SRB assay; format: cell-based; conditions: chlorocebus sabaeus
BC = experiment: Cytotoxicity against human BC cells up to 38 uM by SRB assay; format: functional, cell-based
Plasmodium falciparum = experiment: Antimalarial activity against Plasmodium falciparum K1 infected human A+ erythrocytes by [3H]hypoxanthine uptake; format: functional, organism-based
NCI-H187 = experiment: Cytotoxicity against human NCI-H187 cells up to 38 uM by SRB assay; format: functional, cell-based
KB = experiment: Cytotoxicity against human KB cells up to 38 uM by SRB assay; format: functional, cell-based

CC[C@@H](C)[C@H](N)C(=O)N(C)[C@H](Cc1ccccc1)C(=O)N[C@@H](CC(C)C)C(=O)Nc1ccccc1C(=O)O [HIRSUTELLIC ACID A]
Activity (Vero): Non-toxic | Activity (BC): inactive | pIC50 (Plasmodium falciparum): 5.10 | Activity (NCI-H187): inactive | Activity (KB): inactive
